Laboratory results taken from PubChem BioAssay (NCI).
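Compound exposure: 48 hours, 5 concentrations, 96-well plates. GI50 is the concentration that inhibits growth by half. TGI denotes the concentration required for complete inhibition of growth.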

What was measured:
Test in all cases: NCI-60 cell line screen, 48 h
COLO 205 colon = test system: COLO 205 colon
A549 NSCLC = test system: A549 NSCLC
MALME-3M melanoma = test system: MALME-3M melanoma
MOLT-4 leukemia = test system: MOLT-4 leukemia
NCI-H226 lung = test system: NCI-H226 lung
SK-MEL-28 melanoma = test system: SK-MEL-28 melanoma
OVCAR-3 ovarian = test system: OVCAR-3 ovarian
CCRF-CEM leukemia = test system: CCRF-CEM leukemia

C=CCCCN(C(=O)c1ccccc1)c1ccc(C(=O)OC)o1
TGI (COLO 205 colon): > 100 µM | TGI (A549 NSCLC): > 100 µM | TGI (MALME-3M melanoma): > 100 µM | TGI (MOLT-4 leukemia): > 100 µM | TGI (NCI-H226 lung): > 100 µM

Cc1ccc(N=Nc2c(O)ccc3ccccc23)c(C)c1
TGI (SK-MEL-28 melanoma): > 100 µM | TGI (COLO 205 colon): > 100 µM | TGI (A549 NSCLC): > 100 µM | TGI (OVCAR-3 ovarian): > 100 µM | TGI (MOLT-4 leukemia): > 100 µM | TGI (NCI-H226 lung): > 100 µM

Cc1oc(N)c(S(=O)(=O)/C(C#N)=C/c2ccccc2[N+](=O)[O-])c1C
TGI (CCRF-CEM leukemia): 68.5 µM | TGI (SK-MEL-28 melanoma): 64.2 µM | TGI (COLO 205 colon): 40.3 µM | TGI (A549 NSCLC): 59.7 µM | TGI (OVCAR-3 ovarian): 46.3 µM | TGI (MALME-3M melanoma): > 100 µM | TGI (MOLT-4 leukemia): 62.5 µM | TGI (NCI-H226 lung): > 100 µM

CN(C)Cc1cc(/C=C/C(=O)c2ccc(Br)cc2)cc(CN(C)C)c1O
TGI (CCRF-CEM leukemia): 25.4 µM | TGI (SK-MEL-28 melanoma): 34.9 µM | TGI (COLO 205 colon): 30.1 µM | TGI (A549 NSCLC): > 100 µM | TGI (OVCAR-3 ovarian): 71.4 µM | TGI (MALME-3M melanoma): 31.6 µM | TGI (MOLT-4 leukemia): 42.9 µM

COc1ccc(-c2csc3c2[N+]2(C)C=CC=C2C3N2CCCC2)cc1 (stereo unspecified)
TGI (CCRF-CEM leukemia): > 100 µM | TGI (COLO 205 colon): 42.6 µM | TGI (A549 NSCLC): > 100 µM | TGI (OVCAR-3 ovarian): 52.6 µM | TGI (MALME-3M melanoma): 50.5 µM | TGI (MOLT-4 leukemia): > 100 µM | TGI (NCI-H226 lung): 26.5 µM

C=CCN1C(=O)C[C@H](Cc2ccccc2)NC(=O)C[C@H](Cc2ccccc2)N(CC=C)C(=O)C[C@H](Cc2ccccc2)NC(=O)C[C@@H]1Cc1ccccc1
TGI (CCRF-CEM leukemia): > 100 µM | TGI (SK-MEL-28 melanoma): > 100 µM | TGI (COLO 205 colon): 5.87 µM | TGI (A549 NSCLC): > 100 µM | TGI (OVCAR-3 ovarian): > 100 µM | TGI (MALME-3M melanoma): 50.6 µM | TGI (MOLT-4 leukemia): 6.91 µM | TGI (NCI-H226 lung): > 100 µM

CC12CC(c3ccccc3O1)C(C(=O)Nc1nccs1)C(=O)N2 (stereo unspecified)
TGI (CCRF-CEM leukemia): > 100 µM | TGI (SK-MEL-28 melanoma): > 100 µM | TGI (COLO 205 colon): > 100 µM | TGI (A549 NSCLC): > 100 µM | TGI (OVCAR-3 ovarian): > 100 µM | TGI (MALME-3M melanoma): > 100 µM | TGI (MOLT-4 leukemia): > 100 µM | TGI (NCI-H226 lung): > 100 µM

CC(C)(C)N=C1C(=O)C2(C)CCC1C2(C)C (stereo unspecified)
TGI (SK-MEL-28 melanoma): > 100 µM | TGI (COLO 205 colon): > 100 µM | TGI (A549 NSCLC): > 100 µM | TGI (OVCAR-3 ovarian): > 100 µM | TGI (MALME-3M melanoma): > 100 µM | TGI (NCI-H226 lung): > 100 µM

Oc1ccc(Nc2nc(Cl)c3[nH]cnc3n2)cc1
TGI (CCRF-CEM leukemia): > 100 µM | TGI (COLO 205 colon): > 100 µM | TGI (A549 NSCLC): > 100 µM | TGI (OVCAR-3 ovarian): > 100 µM | TGI (MALME-3M melanoma): > 100 µM | TGI (MOLT-4 leukemia): > 100 µM | TGI (NCI-H226 lung): > 100 µM

C[C@]12CC[C@H]3[C@@H](CC=C4C[C@@H](O)CC[C@@]43C)[C@@H]1C/C(=C\c1ccc([N+](=O)[O-])cc1)[C@@H]2O
TGI (CCRF-CEM leukemia): > 100 µM | TGI (SK-MEL-28 melanoma): 57.6 µM | TGI (COLO 205 colon): > 100 µM | TGI (A549 NSCLC): 25.1 µM | TGI (OVCAR-3 ovarian): 37.1 µM | TGI (MALME-3M melanoma): 53 µM | TGI (MOLT-4 leukemia): > 100 µM | TGI (NCI-H226 lung): 55.2 µM

CCC1OC2(C)CC(C#N)(C#N)C1(C#N)C(=N)O2 (stereo unspecified)
TGI (CCRF-CEM leukemia): > 100 µM | TGI (SK-MEL-28 melanoma): > 100 µM | TGI (COLO 205 colon): > 100 µM | TGI (A549 NSCLC): > 100 µM | TGI (OVCAR-3 ovarian): > 100 µM | TGI (MALME-3M melanoma): > 100 µM | TGI (MOLT-4 leukemia): > 100 µM

COC1OC(C)/C(=N/O)C2OC(C)(C)OC12 (stereo unspecified)
TGI (CCRF-CEM leukemia): > 100 µM | TGI (SK-MEL-28 melanoma): > 100 µM | TGI (COLO 205 colon): > 100 µM | TGI (A549 NSCLC): > 100 µM | TGI (OVCAR-3 ovarian): > 100 µM | TGI (MALME-3M melanoma): > 100 µM | TGI (MOLT-4 leukemia): > 100 µM | TGI (NCI-H226 lung): > 100 µM

C[C@H](NC(=O)C(C)(Cc1ccc(O)cn1)NC(=O)c1ccccc1)c1ccccc1 (stereo partly specified)
TGI (CCRF-CEM leukemia): > 100 µM | TGI (SK-MEL-28 melanoma): > 100 µM | TGI (COLO 205 colon): > 100 µM | TGI (A549 NSCLC): > 100 µM | TGI (OVCAR-3 ovarian): > 100 µM | TGI (MALME-3M melanoma): > 100 µM | TGI (MOLT-4 leukemia): > 100 µM | TGI (NCI-H226 lung): > 100 µM

Clc1cc(Cl)nc(Nc2ccc3c(c2)CCC3)n1
TGI (CCRF-CEM leukemia): 72.8 µM | TGI (SK-MEL-28 melanoma): > 100 µM | TGI (COLO 205 colon): 46.9 µM | TGI (A549 NSCLC): > 100 µM | TGI (OVCAR-3 ovarian): > 100 µM | TGI (MALME-3M melanoma): 93.3 µM | TGI (MOLT-4 leukemia): 69.6 µM | TGI (NCI-H226 lung): > 100 µM

COc1ccc(-c2c(/C=N/OCC(=O)O)c3sc4ccccc4n3c2/C=N/OCC(=O)O)cc1
TGI (CCRF-CEM leukemia): > 50 µM | TGI (SK-MEL-28 melanoma): > 50 µM | TGI (COLO 205 colon): > 50 µM | TGI (A549 NSCLC): > 50 µM | TGI (OVCAR-3 ovarian): > 50 µM | TGI (MALME-3M melanoma): > 50 µM | TGI (MOLT-4 leukemia): > 50 µM

COc1ccc(-c2nc(-c3cnccn3)n(C/C=C/c3ccccc3)n2)cc1
TGI (CCRF-CEM leukemia): > 100 µM | TGI (SK-MEL-28 melanoma): > 100 µM | TGI (COLO 205 colon): > 100 µM | TGI (A549 NSCLC): > 100 µM | TGI (OVCAR-3 ovarian): > 100 µM | TGI (MOLT-4 leukemia): > 100 µM

CCOC(=O)c1c(SC(=O)c2ccc(Cl)cc2)n(-c2ccccc2)c(=S)n(-c2ccccc2)c1=O
TGI (CCRF-CEM leukemia): > 100 µM | TGI (SK-MEL-28 melanoma): > 100 µM | TGI (COLO 205 colon): > 100 µM | TGI (A549 NSCLC): > 100 µM | TGI (OVCAR-3 ovarian): > 100 µM | TGI (MALME-3M melanoma): > 100 µM | TGI (MOLT-4 leukemia): > 100 µM | TGI (NCI-H226 lung): > 100 µM

COC(=O)CCCc1nc2ccccc2nc1N=Nc1ccccc1
TGI (CCRF-CEM leukemia): 72.7 µM | TGI (SK-MEL-28 melanoma): > 100 µM | TGI (COLO 205 colon): 31.2 µM | TGI (A549 NSCLC): > 100 µM | TGI (OVCAR-3 ovarian): > 100 µM | TGI (MALME-3M melanoma): 74.7 µM | TGI (MOLT-4 leukemia): 26.3 µM | TGI (NCI-H226 lung): > 100 µM

Oc1c(NCn2nc(CCCCCCCCc3nn(CNc4ccc5ccccc5c4O)c(=S)o3)oc2=S)ccc2ccccc12
TGI (SK-MEL-28 melanoma): > 100 µM | TGI (COLO 205 colon): > 100 µM | TGI (A549 NSCLC): > 100 µM | TGI (MALME-3M melanoma): > 100 µM | TGI (MOLT-4 leukemia): > 100 µM | TGI (NCI-H226 lung): > 100 µM

CC1(C)CC(=O)C2=C(C1)NC(=S)C(C#N)C2c1ccccc1 (stereo unspecified)
TGI (CCRF-CEM leukemia): > 100 µM | TGI (SK-MEL-28 melanoma): > 100 µM | TGI (COLO 205 colon): > 100 µM | TGI (A549 NSCLC): > 100 µM | TGI (OVCAR-3 ovarian): > 100 µM | TGI (MALME-3M melanoma): > 100 µM | TGI (NCI-H226 lung): > 100 µM

O=C(NCc1cn(Cc2cccc(Oc3ccccc3)c2)nn1)c1cccnc1NCc1ccc(Cl)cc1
GI50 (CCRF-CEM leukemia): 3.05 µM | TGI (CCRF-CEM leukemia): > 100 µM | GI50 (SK-MEL-28 melanoma): 2950 nM | TGI (SK-MEL-28 melanoma): > 100 µM | GI50 (COLO 205 colon): 2180 nM | TGI (COLO 205 colon): 4.04 µM | GI50 (A549 NSCLC): 3.21 µM | TGI (A549 NSCLC): > 100 µM | GI50 (OVCAR-3 ovarian): 3.48 µM | TGI (OVCAR-3 ovarian): 9.55 µM | GI50 (MALME-3M melanoma): 5.69 µM | TGI (MALME-3M melanoma): > 100 µM | GI50 (MOLT-4 leukemia): 3.28 µM | TGI (MOLT-4 leukemia): 8.76 µM | GI50 (NCI-H226 lung): 4.23 µM | TGI (NCI-H226 lung): > 100 µM

Cc1cccc(NC(=S)Nc2cccc(Cl)c2)n1
TGI (CCRF-CEM leukemia): > 100 µM | TGI (SK-MEL-28 melanoma): > 100 µM | TGI (COLO 205 colon): > 100 µM | TGI (A549 NSCLC): > 100 µM | TGI (OVCAR-3 ovarian): > 100 µM | TGI (MALME-3M melanoma): > 100 µM | TGI (MOLT-4 leukemia): > 100 µM | TGI (NCI-H226 lung): > 100 µM

COc1c(NC(C)=O)c2ccccc2c2ccccc12
TGI (CCRF-CEM leukemia): > 100 µM | TGI (SK-MEL-28 melanoma): > 100 µM | TGI (A549 NSCLC): > 100 µM | TGI (OVCAR-3 ovarian): > 100 µM | TGI (MALME-3M melanoma): > 100 µM | TGI (MOLT-4 leukemia): > 100 µM | TGI (NCI-H226 lung): > 100 µM

CSCCC(NC(=O)C(Cc1c[nH]c2ccccc12)NC(=O)CCNC(=O)OC(C)(C)C)C(=O)NC(CC(=O)O)C(=O)NC(Cc1ccccc1)C(N)=O (stereo unspecified)
TGI (CCRF-CEM leukemia): > 50 µM | TGI (SK-MEL-28 melanoma): > 50 µM | TGI (COLO 205 colon): > 50 µM | TGI (A549 NSCLC): > 50 µM | TGI (OVCAR-3 ovarian): > 50 µM | TGI (MOLT-4 leukemia): > 50 µM | TGI (NCI-H226 lung): > 50 µM

COc1ccc(N=C(C)C(C)=Nc2ccc(OC)cc2)cc1
TGI (CCRF-CEM leukemia): > 100 µM | TGI (SK-MEL-28 melanoma): > 100 µM | TGI (COLO 205 colon): 37.1 µM | TGI (A549 NSCLC): > 100 µM | TGI (OVCAR-3 ovarian): > 100 µM | TGI (MALME-3M melanoma): > 100 µM | TGI (MOLT-4 leukemia): > 100 µM | TGI (NCI-H226 lung): > 100 µM

COc1cc(/C=C2\N=C(c3ccccc3)N(c3cc4cc(Sc5ccccc5)ccc4[nH]3)C2=O)ccc1O
TGI (CCRF-CEM leukemia): > 50 µM | TGI (SK-MEL-28 melanoma): > 50 µM | TGI (COLO 205 colon): > 50 µM | TGI (A549 NSCLC): > 50 µM | TGI (MALME-3M melanoma): > 50 µM | TGI (MOLT-4 leukemia): > 50 µM | TGI (NCI-H226 lung): > 50 µM
